Results taken from patent publication US7732602B2, “Herbicide composition” (Sumitomo Chemical Company, Limited, priority 2001, dated 2010).
Structures can show the parent of a compound that is named as a salt.

Columns and labels:
Format in all cases: in vivo
yellow nutsedge = assay: Herbicide effect, foliar spray on yellow nutsedge grown in pots (Test Example 1); parameters: key: a level was taken “0” when completely or almost no difference was observed between the growth behavior of a test weed at the time of observation and that of untreated weed; a level was taken “10” when a test weed completely died or the growth of that was completely inhibited; details: 5 days after treatment, levels 0-10
Method: (§1) Evaluation of phytotoxicity against a crop was shown by “no” when almost no phytotoxicity was observed, “low” when a low level phytotoxicity was observed, “medium” when a medium level phytotoxicity was observed and “high” when a high level phytotoxicity was observed.
(§2) A plastic pot of 11 cm in diameter and 8 cm in depth was filled with field soil. A tuber of yellow nutsedge was buried and grown in a greenhouse for 28 days.
(§3) An emulsion of Compound A-1 was prepared by sufficiently mixing 5 parts of Compound A-1, 6 parts of Sorpol 3005X (surfactant, produced by Toho Chemical) and 89 parts of xylene.
(§4) Each of • (a) single use of an emulsion of Compound A-1, • (b) single use of a solution of Glyphosate isopropylamine salt (commercial name: Roundup, produced by Nippon Monsanto, containing 41% of Glyphosate isopropylamine salt), • (c) single use of a solution of Gltfosinate-Ammonium (commercial name: Basta, produced by Hoechst Schering AgrEvo GmbH, containing 18.5% of Glufosinate-Ammonium), • (d) a mixed composition of an emulsion of Compound A-1 and a solution of Glyphosate isopropylamine salt, and • (e) a mixed composition of an emulsion of Compound A-1 and a solution of Glufosinate-Ammonium were diluted with water containing 1% Agri-dex (produced by Helena). Respective dilutions were uniformly sprayed from upper side onto foliages of yellow nutsedge grown as described above with a small sprayer such that the amounts of the active ingredients were the amounts shown in Table 4. Immediately after the treatment with the test compounds, seeds of corn, soybean and cotton were sown.
(§5) After the treatment, they were raised in a greenhouse for 5 days and the effect against weeds was evaluated. In addition, after 14 days of the treatment, the phytotoxicity to corn, soybean and cotton was evaluated.

corn = assay: Phytotoxicity to corn sown immediately after treatment (Test Example 1); parameters: key: “no” when almost no phytotoxicity was observed; “low” when a low level phytotoxicity was observed; “medium” when a medium level phytotoxicity was observed; “high” when a high level phytotoxicity was observed; details: 14 days after treatment
Method: as §1, §2, §3, §4, §5

soybean = assay: Phytotoxicity to soybean sown immediately after treatment (Test Example 1); parameters: key: “no” when almost no phytotoxicity was observed; “low” when a low level phytotoxicity was observed; “medium” when a medium level phytotoxicity was observed; “high” when a high level phytotoxicity was observed; details: 14 days after treatment
Method: as §1, §2, §3, §4, §5

cotton = assay: Phytotoxicity to cotton sown immediately after treatment (Test Example 1); parameters: key: “no” when almost no phytotoxicity was observed; “low” when a low level phytotoxicity was observed; “medium” when a medium level phytotoxicity was observed; “high” when a high level phytotoxicity was observed; details: 14 days after treatment
Method: as §1, §2, §3, §4, §5

| Compound | Herbicide Effect (yellow nutsedge; 100 g/ha) | Herbicide Effect (yellow nutsedge; 500 g/ha) | Phytotoxicity Cr (corn; 100 g/ha) | Phytotoxicity Cr (corn; 500 g/ha) | Phytotoxicity Be (soybean; 100 g/ha) | Phytotoxicity Be (soybean; 500 g/ha) | Phytotoxicity Ct (cotton; 100 g/ha) | Phytotoxicity Ct (cotton; 500 g/ha) | Herbicide Effect (yellow nutsedge; 200 g/ha) | Herbicide Effect (yellow nutsedge; 1000 g/ha) | Phytotoxicity Cr (corn; 200 g/ha) | Phytotoxicity Cr (corn; 1000 g/ha) | Phytotoxicity Be (soybean; 200 g/ha) | Phytotoxicity Be (soybean; 1000 g/ha) | Phytotoxicity Ct (cotton; 200 g/ha) | Phytotoxicity Ct (cotton; 1000 g/ha) |
| --- | --- | --- | --- | --- | --- | --- | --- | --- | --- | --- | --- | --- | --- | --- | --- | --- |
| CP(=O)(O)CCC(N)C(=O)O.N (racemic) [Glufosinate-Ammonium, ammonium DL-homoalanin-4-yl(methyl)phosphinate] | 0 | 2 | no | no | no | no | no | no | – | – | – | – | – | – | – | – |
| O=C(O)CNCP(=O)(O)O [Glyphosate Isopropylamine Salt, N-(phosphonomethyl)glycine] | – | – | – | – | – | – | – | – | 0 | 0 | no | no | no | no | no | no |
